# Read-outs that look alike come from different tables or passages of the source.
# Legend:
# [1] = Absorption and fluorescence spectra and quantum yield; format: physicochemical; conditions: in methanol at 25° C.
# Protocol: To test this hypothesis, the absorption and fluorescence spectra of coumarin hydrazine and the salicylaldehyde hydrazone of coumarin hydrazine were measured, which serves as a model compound for the protein-bound hydrazone. Hydrazone formation causes a shift in both the absorption and emission maxima of coumarin hydrazine and a significant increase in quantum yield (Table 2). Thus, as a result of the difference in the spectroscopic window and the quantum yields of coumarin hydrazine and its salicylaldehyde hydrazone, fluorescence from unreacted coumarin hydrazine can be averted.
# tubulin tyrosine ligase = molecular target: T1, tubulin tyrosine ligase (Homo sapiens, UniProt Q8NG68); experiment: Inhibition of [3H]-L-tyrosine incorporation into tubulin by TTL; format: biochemical
# T1 construct: made in house; host or cells: Escherichia coli BL21
# T1 sequence (Q8NG68 1-377): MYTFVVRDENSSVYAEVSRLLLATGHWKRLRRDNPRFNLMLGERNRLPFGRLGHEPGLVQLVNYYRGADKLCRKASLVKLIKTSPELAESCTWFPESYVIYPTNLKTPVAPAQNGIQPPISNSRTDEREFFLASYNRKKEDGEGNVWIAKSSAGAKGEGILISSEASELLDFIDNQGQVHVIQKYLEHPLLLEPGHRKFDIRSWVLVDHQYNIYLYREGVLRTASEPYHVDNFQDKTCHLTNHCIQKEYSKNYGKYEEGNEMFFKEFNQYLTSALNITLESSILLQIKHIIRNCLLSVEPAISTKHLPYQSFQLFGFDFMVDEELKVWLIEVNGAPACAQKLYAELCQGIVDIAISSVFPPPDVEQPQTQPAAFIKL
# Protocol: Tubulin Tyrosine Ligase. An initial supply of TTL was a gift of Prof. Dr. Jürgen Wehland and Dr. Christian Erck (Gesellschaft für Biotechnologische Forschung, Germany) and was stored at −80° C. Human TTL was prepared using expression vector p Receiver 05x (Genecopoeia, Md.), transformed into the Escherichia coli expression strain BL21.
# [3H]-Tyr Incorporation Assay. TTL was thawed and diluted to 1 mg mL^−1 immediately before use. Detyrosinated tubulin (10 μM tubulin) in TTL buffer was combined with […] μL^−1 [3H-Tyr], 0.1 μg μL^−1 TTL, and various concentrations of inhibitor. The mixture was allowed to react for 30 min at 37° C. A 35 μL aliquot of the sample was placed onto DEAE chromatography paper (Whatman) and allowed to dry for 30 min. The protein was fixed using 200 μL of 10% acetic acid and allowed to dry for 10 min. Excess [3H-Tyr] was removed by 2 washes with 3.5 mL of 100% ethanol. The paper was allowed to dry for 30 min and then was combined with 10 mL of Scintiverse (BD) scintillation fluid. The amount of [3H]-tyrosine on each filter was determined using a β-counter.
# PC3 cells [2] = experiment: Effect on cell morphology and microtubule network (immunofluorescence); format: cell-based; conditions: 24 hour treatment followed by treatment with a fluorophore
# Protocol: PC3 cells were grown in F12K medium supplemented with unnatural amino acid for 24 h. Cells were washed and then treated with fluorophores for 24 h before fixing with methanol. Cells were then processed for immunofluorescence using tubulin antibody (red) and DAPI (blue).
# PC3 cells were grown in F12K medium supplemented with unnatural amino acid for 24 h. Cells were washed and treated with a fluorophore for 24 h before fixing with methanol. Cells were then processed for immunofluorescence using tubulin antibody (red) and DAPI (blue).
# cells = experiment: SRB assay after 96 h treatment with amino acid; format: cell-based; conditions: for IC50: cells treated 96 h, read-out: IC 50 (toxicity)
# PC3 cells [3] = experiment: SRB cytotoxicity of amino acid and fluorophore on live cells; format: cell-based; conditions: 24 hour period
# Protocol: PC3 cells were grown in medium supplemented with unnatural amino acid or vehicle for 24 h. Cells were then treated with fluorophore or vehicle for 24 h, following which an SRB assay was performed to assess the cytotoxicity of the molecules.
# FIGS. 12A-12C show graphs of cytotoxicity of amino acid and fluorophore on live cells. The labeling technique is not detrimental to PC3 cell survival. PC3 cells were grown in medium supplemented with unnatural amino acid or vehicle (2% v/v, 10 mM phosphate buffer, pH 7) for 24 h. Cells were then treated with fluorophore or vehicle (1% v/v DMSO) for 24 h. Following which SRB assay was performed to assess the cytotoxicity of the molecules.
# [4] = Kinetics of hydrazone formation by absorption difference spectroscopy; conditions: reaction with 3-formyltyrosine, PME buffer pH 6.9, 25° C.
# Text: Removal and replacement of the C-terminal tyrosine of α-tubulin can be assessed by Western blot. […] The presence of a carbonyl in α-tubulin was confirmed reacting the protein with dinitrophenylhydrazine (DNPH) followed L-tyrosine or 3-formyltyrosine as described under Methods and then subjected to SDS-PAGE. Top: Western blot with tyrosinated α-tubulin antibody (Sigma-Aldrich TUB-1A2). Bottom: Coomassie stain. Lane 1: Tubulin. Lane 2: Tubulin treated with CPA. Lane 3: CPA-treated tubulin retyrosinated with tyrosine. Lane 4: CPA-treated tubulin retyrosinated with 3-formyltyrosine. The mass of protein loaded each well was 0.66 μg for the Western blot and 10 μg for the protein stain. Hydrazone Formation: Effect of the Structure of the Nucleophile. Reactions of aldehydes and ketones with hydrazines, hydroxylamines, and amines have been extensively studied (33). The rate vs pH curve is bellshaped; the maximum reaction rate is around the pKa of the hydrazine. […]
# Kinetic Measurements. Kinetics of hydrazone formation were measured using absorption difference spectroscopy. […] The change in absorbance for one wavelength was selected from the spectral data, and these values were plotted as a function of time. The data were analyzed as a single pseudo-first-order reaction and were fit to the appropriate equation using SigmaPlot 10.0.
# [5] = from reference 34; cited from earlier work
# [6] = inhibition of tubulin tyrosine ligase, 10 μM detyrosinated tubulin, 30 min at 37° C.
compound,measurement,setting,value
Cc1cc(=O)oc2cc(NN=Cc3ccccc3O)ccc12,Abs max,[1],380 nm
same,Em max,[1],459 nm
same,φ (quantum yield),[1],0.131
Nc1cc(C[C@H](N)C(=O)O)ccc1O [3-Aminotyrosine],Ki,tubulin tyrosine ligase; [6],200 µM
[N-]=[N+]=Nc1cc(C[C@H](N)C(=O)O)ccc1O [3-Azidotyrosine],Ki,tubulin tyrosine ligase,200 µM
N[C@@H](Cc1ccc(O)c(C=O)c1)C(=O)O [3-Formyltyrosine],effect on microtubule network and cell morphology,PC3 cells [2],does not alter the microtubule network or cell morphology
same,IC50,cells,> 25 µM
same,Ki,tubulin tyrosine ligase,300 µM
Nc1ccc(C[C@H](N)C(=O)O)cc1 [4-Aminophenylalanine],Ki,tubulin tyrosine ligase,> 4000 µM
"CC(=O)c1cc(C[C@H](N)C(=O)O)ccc1O [AcY, 3-acetyltyrosine]",effect on microtubule network and cell morphology,PC3 cells [2],does not alter the microtubule network or cell morphology
same,IC50,cells,> 5000 µM
same,cytotoxicity compared with 3fY,PC3 cells [3],less cytotoxic over 24 hour period than 3fY
N[C@@H](Cc1ccc(O)cc1)C(=O)O [Tyrosine],Ki,tubulin tyrosine ligase; [6],25 µM
"NNC(=O)[C@@H](N)Cc1ccc(O)cc1 [Yzide, tyrosine hydrazide, reference compound]",effect on microtubule network and cell morphology,PC3 cells [2],does not alter the microtubule network or cell morphology
same,toxicity,"cells; 5 mM ligand, 96 h",No toxicity observed
same,IC50,cells,> 5000 µM
"Cc1cc(=O)oc2cc(NN)ccc12 [coumarin hydrazine, 7-hydrazino-4-methyl coumarin]",Abs max,[1],360 nm
same,Em max,[1],432 nm
same,φ (quantum yield),[1],0.046
same,time to complete hydrazone formation,[4],≤ 120 min
same,second-order rate constant of hydrazone formation,[4]; no catalyst,0.883 M⁻¹ s⁻¹
NNc1ccccc1 [phenyl hydrazine],pKa,[5],5.3
Phenyl hydrazide,pKa,[5],3.1
